# Experimental data: BindingDB's records for doi:10.7270/Q24T6GSH (The Scripps Research Institute Molecular Screening Center, 2007)
# pEC50: −log10 of the molar value.
# Target: T1, Isoform 2 of Nuclear receptor ROR-alpha (Alpha-2) (Homo sapiens, UniProt P35398)
# T1 sequence (P35398 whole entry): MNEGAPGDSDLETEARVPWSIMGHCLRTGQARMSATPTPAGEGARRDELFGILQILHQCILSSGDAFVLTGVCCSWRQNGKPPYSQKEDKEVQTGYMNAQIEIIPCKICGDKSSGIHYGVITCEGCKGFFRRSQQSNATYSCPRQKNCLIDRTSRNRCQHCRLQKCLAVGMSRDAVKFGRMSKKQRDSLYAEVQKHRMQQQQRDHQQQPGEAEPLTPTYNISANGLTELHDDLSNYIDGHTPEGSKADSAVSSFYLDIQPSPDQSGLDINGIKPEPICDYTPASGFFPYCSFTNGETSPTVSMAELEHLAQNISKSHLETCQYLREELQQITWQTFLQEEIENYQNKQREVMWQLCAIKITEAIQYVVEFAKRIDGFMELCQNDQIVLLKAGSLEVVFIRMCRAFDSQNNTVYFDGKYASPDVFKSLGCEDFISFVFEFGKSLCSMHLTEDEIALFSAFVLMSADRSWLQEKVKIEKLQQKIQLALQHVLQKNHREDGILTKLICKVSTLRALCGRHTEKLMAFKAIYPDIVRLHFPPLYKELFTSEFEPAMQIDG
# Assay: RORA Gal4 reporter activation in CHO-K1 cells, dose response, counter-screen for SF-1 activator project, cell-based, Gal4-RORA LBD, luciferase luminescence (AID 675)
row,Compound,pEC50
1,"CC(=N)C(C#N)C(=O)CSc1ccc2c(c1)OCCO2 (centres undefined) [(E)-3-amino-2-[2-(2,3-dihydro-1,4-benzodioxin-6-ylsulfanyl)acetyl]but-2-enenitrile]",5.93
2,O=C(Nc1ccc(NC(=O)c2cccs2)cn1)c1ccco1 [Furan-2-carboxylic acid {5-[(thiophene-2-carbonyl)-amino]-pyridin-2-yl}-amide],5.57
3,CC(=O)Nc1ccc(-c2cc3ccccc3o2)cc1 [MLS000036584],6.25
4,O=C(Nc1nnc(C2CCCCC2)s1)c1ccco1 [MLS000039439],6.22
5,CC(=O)c1c(C)[nH]c(C(=O)NCCc2cccc(C)c2)c1C [MLS000045238],5.53
6,O=C(NCC1CCCO1)c1coc2nc3ccccc3nc12 (centres undefined) [MLS000046703],< 4.00
7,O=C(Nc1ccc2c(c1)OCO2)c1ccc(COc2ccc3c(c2)CCC3)o1 [MLS000048173],6.35
8,COc1ccc(CCC(=O)Nc2ccc(-c3noc(-c4ccc(OC)c(OC)c4)n3)cc2)cc1 [MLS000049572],5.61
9,O=C(Nc1ccc(-c2cn3ccsc3n2)cc1)C1CC1 [MLS000053249],6.19
10,COc1ccc(NC(=O)c2ccc3c(c2)OCO3)cc1Cl [MLS000053302],< 4.00
11,CS(=O)(=O)c1ccc2nc(NC(=O)C3COc4ccccc4O3)sc2c1 (centres undefined) [MLS000056123],5.14
12,O=C(Nc1ccc(CN2CCOCC2)cc1)c1cc2ccccc2o1 [MLS000062478],6.32
13,CC(C)(C)c1cc(NC(=O)C2CCCO2)no1 (centres undefined) [MLS000065845],5.60
14,O=C(NCc1ccco1)c1cc2c(s1)CCCCC2 [MLS000065859],< 5.91
15,CCOC(=O)c1cc2cc(OC)ccc2[nH]1 [MLS000071430],5.80
16,C=CCn1c(-c2ccccc2)c[nH]c1=S [MLS000071728],5.83
17,CCOc1ccc(OCC)c(NC(=O)CSc2nc3c(c(=O)n(C)c(=O)n3C)n2C(C)C)c1 [MLS000072726],6.13

row,Compound,pEC50
1,Cc1cnc(NC(=O)CSc2nnc(-c3ccccc3)o2)s1 [MLS000077990],5.38
2,CCOC(=O)c1[nH]c2ccc(C)cc2c1N [MLS000079379],6.14
3,Nc1nc2c(s1)CCc1c-2cnn1-c1ccccc1 [MLS000085948],6.26
4,Cc1cc(C(=O)Nc2sc3c(c2C#N)CCC(C(C)(C)C)C3)no1 (centres undefined) [MLS000087312],5.09
5,CN(C)C=Nc1ncnc2c1cnn2-c1ccc(C(F)(F)F)cn1 [MLS000087855],< 4.00
6,CCCc1cc(C(=O)Nc2ccccc2SC)no1 [MLS000116378],5.04
7,CC(=O)c1cccc(NC(=O)c2cnn3ccccc23)c1 [MLS000118777],5.91
8,CCOc1ccc(OCC)c(NC(=O)C2CCCN2S(=O)(=O)c2cccc3cccnc23)c1 (centres undefined) [MLS000119093],5.67
9,COc1ccccc1Nc1nc2ccccc2[nH]1 [N-(2-methoxyphenyl)-1H-benzimidazol-2-amine],5.79
10,CC(=O)Nc1ccc(-c2nc3c(C)cccc3[nH]2)cc1 [SMR000001134],6.13
11,Cc1cc2n(n1)C(c1ccc(N(C)C)cc1)Nc1ccccc1-2 (centres undefined) [SMR000015202],4.97
12,CC1(C)CC(=O)C(=CNc2ccccc2)C(=O)C1 [SMR000054233],< 4.00
13,O=c1[nH]c2ccccc2nc1-c1cccs1 [SMR000068248],5.43
14,CN(C)C(=O)CSc1nnc(C23CC4CC(CC(C4)C2)C3)o1 [SMR000077996],5.27
15,CCCCC1CCC(c2nc(-c3ccccn3)no2)CC1 (centres undefined) [SMR000105468],6.39
16,CC1(C)CC(=O)C(=CNc2ccc3[nH]ncc3c2)C(=O)C1 [SMR000111453],5.01
17,"COCCn1c(C)cc(C(=O)COC(=O)C23CC4CC(CC(O)(C4)C2)C3)c1C [[2-[1-(2-methoxyethyl)-2,5-dimethylpyrrol-3-yl]-2-oxoethyl] 3-hydroxyadamantane-1-carboxylate]",6.13
